The record followed here is US7169786B2, “Isoxazoline derivatives as anti-depressants” (priority 2001, dated 2007).

The target in experiment [1] is T1, hα2A receptor (Homo sapiens, UniProt P08913).
T1 construct: expressed in transfected cells
T1 sequence (P08913 1-465): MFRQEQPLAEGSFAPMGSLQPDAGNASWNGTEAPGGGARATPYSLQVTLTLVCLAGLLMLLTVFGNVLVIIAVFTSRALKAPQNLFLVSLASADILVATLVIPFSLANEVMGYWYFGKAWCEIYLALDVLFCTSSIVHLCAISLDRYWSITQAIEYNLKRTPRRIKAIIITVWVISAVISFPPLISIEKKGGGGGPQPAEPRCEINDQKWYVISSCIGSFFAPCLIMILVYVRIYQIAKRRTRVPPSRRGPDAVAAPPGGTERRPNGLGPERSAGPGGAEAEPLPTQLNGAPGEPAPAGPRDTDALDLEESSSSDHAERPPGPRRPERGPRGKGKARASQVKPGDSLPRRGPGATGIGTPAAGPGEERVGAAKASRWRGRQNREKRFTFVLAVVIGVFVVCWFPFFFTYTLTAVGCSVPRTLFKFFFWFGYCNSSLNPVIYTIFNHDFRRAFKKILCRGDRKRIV
In words: Radioligand binding experiment for hα2A receptor ([3H]-raulwolscine). As to conditions: membranes of CHO cells expressing human α2A receptor, [3H]raulwolscine 1 nM; for IC50: read-out: hα2A pIC50 (converted). Summed up: (§1)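 Competition binding with [3H]-rauwolscine on membranes from CHO cells stably expressing human α2A, α2B or α2C receptors (sodium butyrate-induced), in 25 mM glycylglycine pH 8.0; filtration and scintillation counting.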

Experiment [2] addresses T2, hα2B receptor (Homo sapiens, UniProt P18089).
T2 construct: expressed in transfected cells
T2 sequence (P18089 1-450): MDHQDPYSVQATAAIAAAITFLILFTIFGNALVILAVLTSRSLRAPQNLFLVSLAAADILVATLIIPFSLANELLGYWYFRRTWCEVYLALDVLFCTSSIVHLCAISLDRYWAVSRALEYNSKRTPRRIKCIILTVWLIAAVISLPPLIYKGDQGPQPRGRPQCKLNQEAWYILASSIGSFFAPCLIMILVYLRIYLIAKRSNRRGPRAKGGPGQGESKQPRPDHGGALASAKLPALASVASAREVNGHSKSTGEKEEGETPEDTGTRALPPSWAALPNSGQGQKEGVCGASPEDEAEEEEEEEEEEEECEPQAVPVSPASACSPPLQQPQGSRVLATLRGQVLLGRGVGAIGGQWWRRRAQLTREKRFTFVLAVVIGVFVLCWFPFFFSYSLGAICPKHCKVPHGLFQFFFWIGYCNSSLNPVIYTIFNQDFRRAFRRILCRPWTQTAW
Kind of experiment: Radioligand binding experiment for hα2B receptor ([3H]-raulwolscine). As to conditions: membranes of CHO cells expressing human α2B receptor, [3H]raulwolscine 1 nM; for IC50: read-out: hα2B pIC50 (converted). Summed up:
as §1

Experiment [3] addresses T3, hα2C receptor (Homo sapiens, UniProt P18825).
T3 construct: expressed in transfected cells
T3 sequence (P18825 1-462): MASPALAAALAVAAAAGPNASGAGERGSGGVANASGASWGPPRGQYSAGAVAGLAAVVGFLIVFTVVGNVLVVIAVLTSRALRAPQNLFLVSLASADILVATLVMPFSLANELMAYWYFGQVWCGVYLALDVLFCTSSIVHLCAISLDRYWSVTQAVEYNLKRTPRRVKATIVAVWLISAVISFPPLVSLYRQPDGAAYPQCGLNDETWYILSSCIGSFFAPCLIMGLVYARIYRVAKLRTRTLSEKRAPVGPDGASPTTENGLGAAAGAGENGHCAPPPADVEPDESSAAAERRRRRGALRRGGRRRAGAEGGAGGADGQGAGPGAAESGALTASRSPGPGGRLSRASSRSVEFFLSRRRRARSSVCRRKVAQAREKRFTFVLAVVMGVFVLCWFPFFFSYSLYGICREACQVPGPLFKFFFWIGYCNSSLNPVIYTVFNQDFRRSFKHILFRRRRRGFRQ
Kind of experiment: Radioligand binding experiment for hα2C receptor ([3H]-raulwolscine). As to conditions: membranes of CHO cells expressing human α2C receptor, [3H]raulwolscine 1 nM; for IC50: read-out: hα2C pIC50 (converted). Summed up: as §1

Experiment [4] deals with T4, h5-HT transporter (Homo sapiens, UniProt P31645).
T4 construct: Human platelet membranes (Oceanix Biosciences Corporation, Hanover, Md., USA) were thawed; tissue Oceanix Biosciences Corporation, Hanover, Md., USA; host or cells: human platelet membranes
In words: Radioligand binding experiment for 5-HT transporter ([3H]paroxetine, human platelet membranes). As to conditions: human platelet membranes, [3H]paroxetine 0.5 nM; for IC50: read-out: 5HTT pIC50 (converted). Summed up: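 Competition binding of [^3H]paroxetine to human platelet membranes in Tris-HCl 50 mM, 120 mM NaCl, 5 mM KCl; filter-bound radioactivity counted.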

T4 sequence (P31645 whole entry): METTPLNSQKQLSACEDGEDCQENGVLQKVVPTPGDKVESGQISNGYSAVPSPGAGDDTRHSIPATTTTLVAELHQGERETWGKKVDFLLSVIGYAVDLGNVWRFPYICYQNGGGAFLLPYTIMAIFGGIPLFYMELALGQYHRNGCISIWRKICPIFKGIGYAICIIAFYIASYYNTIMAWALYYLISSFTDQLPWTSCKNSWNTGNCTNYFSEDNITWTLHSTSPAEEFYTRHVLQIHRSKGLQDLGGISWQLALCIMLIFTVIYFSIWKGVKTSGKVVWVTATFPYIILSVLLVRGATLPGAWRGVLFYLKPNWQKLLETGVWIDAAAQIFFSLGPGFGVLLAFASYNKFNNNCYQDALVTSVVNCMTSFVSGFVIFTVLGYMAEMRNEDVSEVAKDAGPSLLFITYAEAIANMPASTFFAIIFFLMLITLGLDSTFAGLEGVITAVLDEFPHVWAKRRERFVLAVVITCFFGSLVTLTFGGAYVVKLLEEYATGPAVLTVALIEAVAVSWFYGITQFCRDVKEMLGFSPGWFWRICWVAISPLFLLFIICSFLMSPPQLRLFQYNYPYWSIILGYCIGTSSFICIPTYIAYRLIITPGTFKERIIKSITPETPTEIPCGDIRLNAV

Turning to `COc1cc2c(cc1OC(C)=O)C1=NOC(CN3CCN(CC(C)=Cc4ccccc4)CC3)C1CO2` (centres unmarked) [Compound 257], in experiment [1], the “hα2A pIC50” value was found to be 7.52. For the same molecule, the “hα2B pIC50” value in experiment [2] worked out at 8.37. Moreover, the “hα2C pIC50” value in experiment [3] amounted to 8.65. The “5HTT pIC50” value in experiment [4] worked out at 7.46.

As to `COc1ccc2c(c1)OCC1C2=NOC1CN1CCN(Cc2ccc3ccccc3c2)CC1` (centres unmarked) [Compound 265], the IC50 in experiment [1] was 3.47 nM; in experiment [2], 20.9 nM; in experiment [3], 27.5 nM; in experiment [4], 14.8 nM.

`CN1CC2C(=NOC2CN2CCN(Cc3ccc4ccccc4c3)CC2)c2ccccc21` (centres unmarked) [Compound 266]: the “hα2A pIC50” value in experiment [1] came out at 7.84. Besides, the “hα2B pIC50” value in experiment [2] is listed as 7.80. For the same molecule, in experiment [3], the “hα2C pIC50” value came to 7.45. The “5HTT pIC50” value in experiment [4] amounted to 8.88.

In the case of `COCCOCOc1ccc2c(c1)OCC1C2=NOC1CN1CCN(Cc2ccc3ccccc3c2)CC1` (centres unmarked) [Compound 267], the IC50 was 3.24 nM in experiment [1], 12.6 nM in experiment [2], 2.82 nM in experiment [3] and 5.01 nM in experiment [4].

`Oc1ccc2c(c1)OCC1C2=NOC1CN1CCN(Cc2ccc3ccccc3c2)CC1` (centres unmarked) [Compound 268]: the IC50 is 1 nM in experiment [1], 5.5 nM in experiment [2], 8.91 nM in experiment [3] and 5.75 nM in experiment [4].

Consider `c1ccc2cc(CN3CCN(CC4ON=C5c6ccc(OC7CCOC7)cc6OCC54)CC3)ccc2c1` (centres unmarked) [Compound 271], for which the IC50 in experiment [1] was 3.89 nM; in experiment [2] it was 13.8 nM; in experiment [3], 42.7 nM; in experiment [4], 2.95 nM.

For `CC(=O)Oc1ccc2c(c1)OCC1C2=NOC1CN1CCN(Cc2ccc3ccccc3c2)CC1` (centres unmarked) [Compound 273], the IC50 in experiment [1] is 7.76 nM; in experiment [2], 20.9 nM; in experiment [3], 30.9 nM; in experiment [4], 13.2 nM.

Take `c1ccc2cc(CN3CCN(CC4ON=C5c6cc7c(cc6OCC54)OCO7)CC3)ccc2c1` (centres unmarked) [Compound 277]: the IC50 in experiment [1] was 2.45 nM; in experiment [2], 7.94 nM; in experiment [3], 17 nM; in experiment [4], 107 nM.

Regarding `C(=Cc1ccccc1)CN1CCN(CC2ON=C3c4cc5c(cc4OCC32)OCO5)CC1` (centres unmarked) [Compound 278], the IC50 is 3.24 nM in experiment [1], 7.24 nM in experiment [2], 6.92 nM in experiment [3] and 245 nM in experiment [4].

Turning to `COc1ccc2c(c1)OCC1C2=NOC1CCN1CCN(Cc2ccc3ccccc3c2)CC1` (centres unmarked) [Compound 280], the IC50 in experiment [1] is 91.2 nM; in experiment [2] it was 447 nM; in experiment [3], 380 nM; in experiment [4], 8.13 nM.

`COc1cc2c(cc1OC)C1=NOC(CN3CCN(Cc4cccc(F)c4)CC3)C1CO2` (centres unmarked) [Compound 285]: the IC50 in experiment [1] is 603 nM; in experiment [2] it was 575 nM; in experiment [3] it was 363 nM; in experiment [4], 257 nM.

In the case of `COc1cc2c(cc1OC)C1=NOC(CN3CCN(Cc4ccoc4)CC3)C1CO2` (centres unmarked) [Compound 296], the IC50 is 759 nM in experiment [1], 407 nM in experiment [2], 724 nM in experiment [3] and 871 nM in experiment [4].

With `COc1cc2c(cc1OC)C1=NOC(CN3CCN(Cc4ccsc4)CC3)C1CO2` (centres unmarked) [Compound 300], the IC50 in experiment [1] is 347 nM; in experiment [2], 933 nM; in experiment [3], 631 nM; in experiment [4] it was 724 nM.

On to `COc1cc2c(cc1OC)C1=NOC(CN3CCN(Cc4ccc5c(N)cccc5c4)CC3)C1CO2` (centres unmarked) [Compound 304], for which the IC50 in experiment [1] is 19.5 nM; in experiment [2], 58.9 nM; in experiment [3] it was 64.6 nM; in experiment [4] it was 38.9 nM.
